Data reported in patent US9765087B2, “Benzimidazole derivatives” (ENANTA PHARMACEUTICALS, INC., priority 2009, dated 2017).
Read-outs that look alike come from different tables or passages of the source.

Columns and labels:
HCV 1b genotype replicon = assay: HCV replicon assay (qRT-PCR or luciferase), genotype 1b; type: cell-based; conditions: Hepatitis C virus
Outline: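 EC50 derived either from luciferase signal in Huh-luc/neo-ET replicon cells after 72 h compound exposure (0.2% DMSO, 37 °C) or from TaqMan qRT-PCR of replicon RNA normalized to GAPDH. MTS assay assessed cytotoxicity; combinations tested in 6-point two-fold checkerboards around each EC50.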

HCV 1a genotype replicon = assay: HCV replicon assay (qRT-PCR or luciferase), genotype 1a; type: cell-based; conditions: Hepatitis C virus
Outline: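 Bartenschlager HCV replicon Huh cells; EC50 from HCV RNA by TaqMan qRT-PCR normalised to GAPDH, cytotoxicity by MTS. Combination studies in Huh-luc/neo-ET cells seeded at 7,000/well, compounds in 6-point two-fold dilutions, 0.2% DMSO final, 72 h at 37 °C, luciferase read-out.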

[1] = Table 12, numeric values, read-out: 1b EC50
[2] = Table 12, range class, read-out: 1a EC50 Range
[3] = Table 12, range class, read-out: 1b EC50 Range
[4] = Table 12, numeric values, read-out: 1a EC50

Q: Which results are given for `COC(=O)N[C@H](C(=O)N1C[C@]2(CCCO2)C[C@H]1c1nc(-c2ccc(C#Cc3ccc4[nH]c([C@@H]5CC6(CC6)CN5C(=O)[C@@H](NC(=O)OC)C(C)C)nc4c3)cc2)c[nH]1)C(C)C` [Example 546]?
A: EC50 (HCV 1b genotype replicon; [1]): 0.012 nM; EC50 (HCV 1a genotype replicon; [2]): < 1 nM

Q: With `COC(=O)N[C@@H](CC#N)C(=O)N1CCC[C@H]1c1nc(-c2ccc(C#Cc3ccc4[nH]c([C@@H]5CC6(CC6)CN5C(=O)[C@@H](NC(=O)OC)C(C)C)nc4c3)cc2)c[nH]1` [Example 621] as the molecule, how does the EC50 (HCV 1b genotype replicon; [3]) read?
A: < 1 nM

Q: And the EC50 (HCV 1a genotype replicon; [4])?
A: 0.207 nM

Q: `COC(=O)N[C@H](C(=O)N1CCC[C@H]1c1nc(-c2ccc3cc(-c4ccc5[nH]c([C@@H]6CC7(CC7)CN6C(=O)[C@@H](NC(=O)OC)C(C)C)nc5c4)ccc3c2)c[nH]1)C(C)C` [Example 692] was tested. Which EC50 (HCV 1b genotype replicon; [1]) did it give?
A: 0.011 nM

Q: What about the EC50 (HCV 1a genotype replicon; [2]) of the same molecule?
A: < 1 nM

Q: Which EC50 (HCV 1b genotype replicon; [1]) does the source give for `COC(=O)N[C@H](C(=O)N1CCC[C@H]1c1nc(-c2ccc3nc(-c4ccc5[nH]c([C@@H]6CC7(CC7)CN6C(=O)[C@@H](NC(=O)OC)C(C)C)nc5c4)ccc3c2)c[nH]1)C(C)C` [Example 574] here?
A: 0.036 nM

Q: And the EC50 (HCV 1a genotype replicon; [4])?
A: 0.127 nM

Q: For `COC(=O)N[C@H](C(=O)N1CC2(CC2)C[C@H]1c1ncc(-c2ccc(C#Cc3ccc4nc([C@@H]5C[C@@]6(CCCOC6)CN5C(=O)[C@@H](NC(=O)OC)C(C)C)[nH]c4c3)cc2)[nH]1)C(C)C` [Example 638], which EC50 (HCV 1b genotype replicon; [1]) is on record?
A: 0.007 nM

Q: What about the EC50 (HCV 1a genotype replicon; [2]) of the same molecule?
A: < 1 nM

Q: `COC(=O)N[C@H](C(=O)N1C[C@]2(C[C@H]1c1ncc(-c3ccc(C#Cc4ccc5nc([C@@H]6CC7(CC7)CN6C(=O)[C@@H](NC(=O)OC)C(C)C)[nH]c5c4)cc3)[nH]1)CC2(F)F)C(C)C` [Example 614] was tested. Which EC50 (HCV 1b genotype replicon; [1]) did it give?
A: 0.004 nM

Q: What about the EC50 (HCV 1a genotype replicon; [2]) of the same molecule?
A: < 1 nM

Q: Which results are given for `COC(=O)N[C@H](C(=O)N1CC2(CC2)C[C@H]1c1nc(-c2ccc(C#Cc3ccc4[nH]c([C@@H]5C[C@@]6(CCCO6)CN5C(=O)[C@@H](NC(=O)OC)C(C)C)nc4c3)cc2)c[nH]1)C(C)C` [Example 555]?
A: EC50 (HCV 1b genotype replicon; [1]): 0.007 nM; EC50 (HCV 1a genotype replicon; [2]): < 1 nM

Q: Which EC50 (HCV 1b genotype replicon; [3]) does the source give for `COC(=O)N[C@H](C(=O)N1CC2(CC2)C[C@H]1c1ncc(-c2ccc(C#Cc3ccc4nc([C@@H]5C[C@@H](C6CC6)CN5C(=O)[C@@H](NC(=O)OC)C(C)C)[nH]c4c3)cc2)[nH]1)C(C)C` [Example 612] here?
A: < 1 nM

Q: And the EC50 (HCV 1a genotype replicon; [2])?
A: < 1 nM

Q: Which EC50 (HCV 1b genotype replicon; [1]) does the source give for `COC(=O)N[C@H](C(=O)N1CC2(CC2)C[C@H]1c1nc2ccc(C#Cc3ccc(-c4cnc([C@@H]5CC6(CC6)CN5C(=O)[C@@H](NC(=O)OC)[C@@H](C)OCCF)[nH]4)cc3)cc2[nH]1)C(C)C` [Example 547] here?
A: 0.018 nM

Q: What about the EC50 (HCV 1a genotype replicon; [2]) of the same molecule?
A: < 1 nM

Q: Which results are given for `COC(=O)N[C@H](C(=O)N1C[C@@H](OC)C[C@H]1c1nc(-c2ccc(C#Cc3ccc4[nH]c([C@@H]5C[C@@]6(CCCO6)CN5C(=O)[C@@H](NC(=O)OC)C(C)C)nc4c3)cc2)c[nH]1)C(C)C` [Example 558]?
A: EC50 (HCV 1b genotype replicon; [3]): < 1 nM; EC50 (HCV 1a genotype replicon; [2]): < 1 nM

Q: How did the EC50 (HCV 1b genotype replicon; [1]) turn out when `COC(=O)N[C@H](C(=O)N1CC2(CC2)C[C@H]1c1nc(-c2ccc(-c3ccc4[nH]c([C@@H]5CC6(CC6)CN5C(=O)[C@@H](NC(=O)OC)C(C)C)nc4c3)cc2)c[nH]1)C(C)C` [Example 640] was run?
A: 0.03 nM

Q: And the EC50 (HCV 1a genotype replicon; [2])?
A: 1 to 10 nM

Q: Which EC50 (HCV 1b genotype replicon; [1]) does the source give for `COC(=O)N[C@H](C(=O)N1CCC[C@H]1c1nc(-c2ccc(C#Cc3ccc4[nH]c([C@@H]5C[C@@]6(CCOC6)CN5C(=O)[C@@H](NC(=O)OC)C(C)C)nc4c3)cc2)c[nH]1)C(C)C` [Example 630] here?
A: 0.011 nM

Q: And the EC50 (HCV 1a genotype replicon; [2])?
A: < 1 nM

Q: What does the source list for `COC(=O)N[C@H](C(=O)N1CC2(CC2)C[C@H]1c1ncc(-c2ccc(C#Cc3ccc4nc([C@@H]5C[C@H](C6CC6)CN5C(=O)[C@@H](NC(=O)OC)C(C)C)[nH]c4c3)cc2)[nH]1)C(C)C` [Example 691]?
A: EC50 (HCV 1b genotype replicon; [3]): < 1 nM; EC50 (HCV 1a genotype replicon; [2]): < 1 nM

Q: Which EC50 (HCV 1a genotype replicon; [4]) does the source give for `COC(=O)N[C@H](C(=O)N1CC2(CC2)C[C@H]1c1nc2ccc(C#Cc3ccc(-c4cnc([C@@H]5CCCN5C(=O)[C@H](NC(=O)OC)c5cccc(OC)c5)[nH]4)cc3)cc2[nH]1)C(C)C` [Example 597] here?
A: 0.227 nM

Q: `COC(=O)N[C@H](C(=O)N1CC2(CC2)C[C@H]1c1nc(-c2cccnc2)c(-c2ccc(C#Cc3ccc4nc([C@@H]5CC6(CC6)CN5C(=O)[C@@H](NC(=O)OC)C(C)C)[nH]c4c3)cc2)[nH]1)C(C)C` [Example 662] was tested. Which EC50 (HCV 1a genotype replicon; [2]) did it give?
A: < 1 nM
